The source of these data is paper PMC6759476, “Prior Activation of 5-HT7 Receptors Modulates the Conditioned Place Preference With Methylphenidate” (Frontiers in Behavioral Neuroscience, 2019).

The subject of series [1] is rats. The series is described as follows: Conditioned place preference with MPH and TP-22. The format is in vivo, rat (Wistar-Han). The text has this:
The experimental apparatus used for the CPP test is a Black/White Box (BWB; Adriani et al., [2012]), i.e., a Plexiglas box with smooth walls and floor (70 × 30 × 35 cm) composed of two environments separated by a central gray wall placed at a distance of about 35 cm from end walls. The walls on the longer sides are gray whereas those on the short margins can be distinguished by black or white color. To make the two environments more recognizable, we added additional visual cues: three horizontal white stripes to the black wall and three vertical black stripes to the white wall. On the central gray wall there is a door with an easily removable panel (partition), allowing the experimental subjects to pass (or not) from one compartment chamber to the other, when required.
On both longer sides of the box, there are two aluminum bars equipped with eight photocells connected by cables to a computer. The software in use is Cage controller 1.27 for Dark Light for Rat and Mouse® (PRS, Rome, Italy)^2, that allows to score for each subject:
• Motor activity (beam interruptions per second) in either chamber • Time spent in each chamber (both forepaws and hindpaws in a same chamber) • Transitions (number of times a subject crosses the door between the two chambers)
This test was carried out under dim light and required nine not consecutive days divided into four steps (Figures 2–4):
• Day 1, initial preference test. The spontaneous place preference of experimental subjects was tested in drug-free conditions. They were initially placed in the black chamber (chosen as starting room) and central door was open during the whole test (15 min). The triplet of rats residing in each home cage was tested at the same time. • Days 2–7, drug conditioning. On odd days all 18 subjects were injected with saline solution only and, after injection, immediately placed in the black chamber. […]
The dependent variable was calculated as final preference day minus initial preference day. […]

The target in another series is 5-HT1A. The arrangement: method as in Lacivita et al., 2016. The settings on record: ref Lacivita et al., 2016; cited from earlier work.
The next series concerns the target 5-HT6. Also on record: method as in Lacivita et al., 2016. The settings on record: ref Lacivita et al., 2016; cited from earlier work.
A further series has as its target D2. The arrangement: method as in Lacivita et al., 2016. The settings on record: ref Lacivita et al., 2016; cited from earlier work.
The next series concerns the target Alfa-1. Also on record: method as in Lacivita et al., 2016. As to conditions: ref Lacivita et al., 2016; cited from earlier work.
Details of series [2]: method as in Lacivita et al., 2016; Modica et al., 2018. As to conditions: in vivo bio-distribution; ref Lacivita et al., 2016; Modica et al., 2018; cited from earlier work.
For another series, the system named is mice. Also on record: method as in Galici et al., 2008; Waters et al., 2012. As to conditions: ref Galici et al., 2008, Waters et al., 2012; cited from earlier work.
The subject of series [3] is rats. The arrangement: method as in Galici et al., 2008; Waters et al., 2012. The settings on record: ref Galici et al., 2008, Waters et al., 2012; cited from earlier work.

Take `COC(=O)C(c1ccccc1)C1CCCCN1` (stereo not shown) [MPH, methylphenidate]: in the series with rats [1] (VEH then MPH 5 mg/kg i.v., vs saline control, P < 0.01), the “locomotor activity on drug conditioning days (white chamber)” value was “significantly enhanced”. Further, the “activity rate, post-conditioning preference test minus initial test” value in the series on rats [1] (drug-free, VEH+MPH conditioned rats) was “negative during the entire session”. In addition, the “time spent in the white side, post-conditioning preference test” value with rats [1] (drug-free, VEH+MPH conditioned rats, first 05 min) is “slight preference for the white side”.
What is called Ki is a measure of affinity in units of concentration, obtained from inhibition or displacement. On to `N#Cc1ccc(CNC(=O)CCCCCN2CCN(c3ccccc3-c3ccccc3)CC2)cc1` [LP-211, N-(4-cyanophenylmethyl)-4–(2-biphenyl)-1-piperazinehexanamide], for which the Ki is 0.379 µM on 5-HT1A, 1.57 µM at 5-HT6, 0.242 µM at D2 and 0.0226 µM on Alfa-1. Moreover, the “brain Cmax” value in series [2] was 540 ng/mL.
On to `CC1CCN(CC[C@H]2CCCN2S(=O)(=O)c2cccc(O)c2)CC1` [SB-269970], for which the amphetamine-induced hyperactivity result in the series on mice and with rats [3] was “significantly attenuated” each time.
